Like-named read-outs stand apart in the source and are kept apart here. Values belong to the compound of their own block, whether it stands above or below them.
Legend:
[1] = Plasma protein binding (fup), rapid equilibrium dialysis; format: in vitro ADME, human; details: male, human, plasma, 20 h, 1 µM
Procedure: (differing in 2 donors) were used for activity and microsomal binding assays, respectively.
The human biological samples were sourced ethically, and their research use was in accord with the terms of the informed consents under an IRB/EC approved protocol.
Determination of plasma protein binding (fup):
Human plasma (male, K2EDTA) was obtained from BioIVT (Baltimore, MD, USA). A pool of n=20 donors was prepared in-house (batch: 16062022). The plasma protein binding of compounds in human was determined by equilibrium dialysis using the rapid equilibrium dialysis (RED) device (Thermo […]
Frozen blank human plasma […]
solution to a final concentration of 1 µM (0.5 % DMSO). 300 µ L of the fortified plasma samples were subjected to dialysis against 500 µL PBS buffer at pH 7.4, for 6 h at 37 °C in triplicate. After dialysis, 200 µl aliquots of the buffer and the plasma compartments were transferred into micronic tubes. To minimize the potential for non -specific binding to the micronic tubes the buffer sam ples were collected on to 50µl of 10 % bovine serum albumin (BSA). For the assessment of test compound stability in plasma, 300 µl aliquots of the spiked plasma solutions were transferred into micronic tubes and incubated in an air heated incubator at 37°C without shaking for 4 and 20 hours. The remaining spiked protein solutions were frozen and used to measure the initial start concentration ( C0) to calculate the recovery. Sample analysis was achieved by LC -MS/MS and absolute quantification of the drug lev els in the buffer and plasma compartments was achieved via a matrix matched calibration curve (in the presence of an internal standard tolbutamide). All buffer and plasma sample sets were matrix matched […]
for analysis. The samples were centrifuged (15 minutes, 3400 g) and supernatants were transferred to a fresh plate for analysis. The unbound concentration (Cu), and the total concentration (CED) were determined by measurement of the concentration of the test compound in the buffer and plasma compartments of the dialysis cells, respectively. The fraction unbound was calculated using Eq. S1.
fuplasma = Cu/CED (Eq. S1)
The percentage recovery was calculated as the ratio of the sum of the amount in the buffer (Au) and plasma (AED) compartments to the amount at time zero (A0) (Eq. S2). The percentage stability was calculated as the ratio of the concentration of the test compound at the end of the incubation (C t) time […]
% recovery = (( Au + AED ) / A0 ) × 100 (Eq. S2)

[2] = Blood-to-plasma ratio (B/P); format: in vitro ADME, human
Text: Determination of blood to plasma ratio (B/P):
Whole human blood was collected on the day of the experiment from healthy volunteers. The collection protocol was approved by an independent ethical committee and all donors signed the consent forms. All samples were registered in the Janssen Biobank.
Prewarmed blood aliquots were mixed with the compounds (final concentrations shown in Suppl. Table 5) with a final organic DMSO solvent concentration of ≤0.1% (v/v). After gentle mixing to avoid haemolysis, blood aliquots were immediately collected for protein precipitation (1:1:8 ratios of blood sample:DMSO:ACN) and centrifugation (10 minutes, 3800 g) and the supernatant was used as a 0-minute reference blood sample. At the same time, blood aliquots were taken and centrifuged (10 minutes, 1200 g) to obtain the plasma portion. Plasma aliquots were then immediately collected for protein precipitation (1:1:8 ratios of plasma sample:DMSO:ACN) and centrifugation (10 minutes, 3800 g) and the supernatant was used as a 0-minute reference plasma sample. The remainder of the blood fraction was incubated (30 min at 37 °C). Following incubation, 30 -minute blood and plasma samples were taken and prepared as described for the reference 0-minute samples.
Mean compound concentration values (n=3 replicates) were calculated for both the blood and plasma samples. A blood-to-plasma concentration ratio was then determined using Eq. S4. […]

[3] = In vitro permeability (Papp), transwell transport; details: dog, MDCK
[4] = both, human, 6 h, 2 µM, pH 7.4
Procedure: Microsomal binding (fumic):
(§10) The fraction unbound in human liver microsomes (fumic) of compounds was determined by equilibrium
(§11) dialysis using the high-throughput dialysis method 2 using membranes from HTDialysis, LLC (Gales
(§12) Ferry, CT) having 12 to 14 kDa molecular mass cutoff. Deactivated HLM (by leaving the HLM
(§13) incubation media on the bench overnight at ambient temperature) at 0.25 mg/mL with 2 µM of
(§14) compounds (a final concentration of DMSO as 1%) was added to the donor compartment in 50 mM
(§15) phosphate buffer containing 1 M MgCl2. (150 µL, n=4 per compound). 150 µL of Dulbecco’s PBS
(§16) buffer (pH 7.4) was added to the receiver chamber for each replicate. After reaching equilibrium for 6
(§17) h on a plate shaker (200 rpm) at 37°C in a humidified CO2 incubator (5% CO2), aliquots from both the
(§18) receiver (45 µL) and donor (15 µL) sides of the membrane were matrix matched and analyzed by LC-
(§19) MS/MS. Matrix stability (n=3) and % of recovery (n=4) were assessed.
(§20) Data analysis for binding in microsomal and cytosolic incubations:
(§21) Fraction unbound in microsomal (fumic) and cytosolic (fucyt) incubations were calculated via Eq. S10-11
(§22) based on the ratio of the peak areas of analyte and internal standard.
(§23) 𝑃𝑒𝑎𝑘 𝐴𝑟𝑒𝑎 𝑅𝑎𝑡𝑖𝑜 = (𝑃𝑒𝑎𝑘 𝐴𝑟𝑒𝑎 𝑜𝑓 𝐴𝑛𝑎𝑙𝑦𝑡𝑒)/(𝑃𝑒𝑎𝑘 𝐴𝑟𝑒𝑎 𝑜𝑓 𝐼𝑛𝑡𝑒𝑟𝑛𝑎𝑙 𝑆 tan 𝑑 𝑎𝑟𝑑) (Eq. S10)
(§24) 𝑓𝑢𝑚𝑖𝑐 𝑜𝑟 𝑓𝑢𝑐𝑦𝑡 = (𝑃𝑒𝑎𝑘 𝐴𝑟𝑒𝑎 𝑅𝑎𝑡𝑖𝑜 𝑖𝑛 𝑟𝑒𝑐𝑒𝑖𝑣𝑒𝑟 𝑐𝑜𝑚𝑝𝑎𝑟𝑡𝑚𝑒𝑛𝑡)/
(§25) concentration (0.5 mg/mL) using Hallifax and Houston algorithm (Hallifax and Houston, 2006). Matrix
(§26) stability and recovery were assessed using Eq. S12 and Eq. S13.
(§27) %𝑠𝑡𝑎𝑏𝑖𝑙𝑖𝑡𝑦 = (𝐴𝑣𝑒𝑟𝑎𝑔𝑒 𝑝𝑒𝑎𝑘 𝑎𝑟𝑒𝑎 𝑖𝑛 𝑚𝑎𝑡𝑟𝑖𝑥 𝑎𝑡 𝑡ℎ𝑒 𝑒𝑛𝑑 𝑜𝑓 𝑖𝑛𝑐𝑢𝑏𝑎𝑡𝑖𝑜𝑛)/
(§28) (𝐴𝑣𝑒𝑟𝑎𝑔𝑒 𝑝𝑒𝑎𝑘 𝑎𝑟𝑒𝑎 𝑎𝑡 𝑇 = 0) × 100 (Eq. S12)
%𝑟𝑒𝑐𝑜𝑣𝑒𝑟𝑦 = (𝐴 + 𝐵)/𝐶 × 100 (Eq. S13)
(§29) where A is the average peak area ratio of all matrix samples, B is the average peak area ratio
(§30) of all buffer samples multiplied with the buffer dilution factor and C is the average peak area ratio of

[5] = test system: CYP3A4; details: cited from earlier work
[6] = in vitro; details: both, human, microsomes
Procedure: Subcellular fractions of human and dog liver were sourced from XenoTech (Kansas City, KS, USA). In vitro CLint,u was measured with substrate depletion and binding assays for all compounds (1 μM) in human liver microsomes (HLM; 0.25–0.5 mg/mL) and HLC (1 mg/mL).
Microsomal clearance incubations (CLint):
Human liver microsomes were stored at −80°C and rapidly thawed just before use at 37°C.
All compounds were mixed with HLM and 50 mM
phosphate buffer. 450 µL of the mixture was added to 1.2mL cluster tubes in a 96-well block in
duplicate and warmed in a water bath (Thermo Scientific Precision™,Waltham MA, USA ) at 37°C for
5 min. Reactions were initiated by the addition of 50 µL from 10 mM of NADPH stock in 50 mM
phosphate buffer (final NADPH concentration, 1 mM). The final incubation contained 1 µM test
compound in 500 µL total volume with 0.02% DMSO. At each time point (5, 10, 20, 30, and 60 min),
60 µL of incubation mixture was added to 120 uL of quench solutions (MeOH:ACN, 1:1, v:v)
containing internal standard (0.5 µM carbutamide). The mixture was centrifuged at 3000 rpm for 20
min (Eppendorf 5810R, Hamburg, Germany). Supernatant was injected to HPLC-MS/MS with for data
Data analysis for substrate depletion assays:
Data from the microsomal and cytosolic incubations were analyzed using GraFit 7 (Erithacus Software,
Horley, UK) to determine the elimination rate constant (k), which was used in CLint calculation (Eq.
S9). A nonlinear single exponential fit was used for all compounds.
𝐶𝐿 = 𝑘 × 𝑣𝑜𝑙𝑢𝑚𝑒 𝑜𝑓 𝑖𝑛𝑐𝑢𝑏𝑎𝑡𝑖𝑜𝑛 (Eq S9)

[7] = with 25 μM hydralazine; cited from earlier work
[8] = cited from earlier work
[9] = cited from earlier work; remark: listed apart in the source
[10] = cited from earlier work; remark: listed apart in the source
[11] = Microsomal binding (fumic); details: corrected with Hallifax&Houston algorithm
Procedure: Microsomal binding (fumic):
as §10, §11, §12, §13, §14, §15, §16, §17, §18, §19, §20, §21, §22, §23, §24, §25, §26, §27, §28
%𝑟𝑒𝑐𝑜𝑣𝑒𝑟𝑦 = (𝐴 + 𝐵)/𝐶 × 100 (Eq. S13)
as §29, §30

[12] = Cytosolic binding (fucyt), dog liver cytosol; details: 1 mg/mL; n=3, mean (CV%)
Procedure: In vitro data were generated to inform the PBPK models of the selected drugs (Supplement 1 in Appendix S1; Table S1). Subcellular fractions of human and dog liver were sourced from XenoTech (Kansas City, KS, USA). In vitro CLint,u was measured with substrate depletion and binding assays for all compounds (1 μM) in human liver microsomes (HLM; 0.25–0.5 mg/mL) and HLC (1 mg/mL). HLC pool was prepared from livers perfused with Custodiol HTK (histidine tryptophan ketoglutarate) solution, marketed as having preserved “high AO/XO activity.”[15] Dog liver cytosols (DLC; 1 mg/mL) were used to investigate cytosolic binding in the absence of AO. Routine in vitro assays were used to quantify unbound fraction in plasma (fup), blood‐to‐plasma ratio (B/P), and apparent permeability (Papp) through transwell transport assays utilizing canine Mdr1 knockout and empty vector‐transfected MDCKI cells.
𝐶𝐿 = 𝑘 × 𝑣𝑜𝑙𝑢𝑚𝑒 𝑜𝑓 𝑖𝑛𝑐𝑢𝑏𝑎𝑡𝑖𝑜𝑛 (Eq S9)
Cytosolic binding (fucyt):
The fraction unbound in human liver cytosols (fucyt) of compounds was determined by equilibrium
dialysis using the RED device (Thermo Fisher, Waltham MA, USA) with a molecular weight cut-off of
8 kDa. Dog or human liver cytosols at 1 mg/mL with 1 µM of compounds (300 µL, n=3 per compound)
were added to the donor compartment in 100 mM potassium phosphate buffer with final DMSO
liver cytosols to inactivate AO, whereas dog was used as a natural AO knock-out model. 500 µL of 100
mM potassium phosphate buffer (pH 7.35) was added to the receiver chamber for each replicate.
RED device was then sealed with an adhesive foil and incubated on an orbital shaker at 450 rpm (VWR
Symphony) at 37°C with 5 % CO2. After reaching equilibrium for 4 hours, aliquots from both the
receiver (30µL) and donor (30µL) sides of the membrane were matrix matched, and then quenched with
180 µL of cold ACN with 100 nM propranolol (internal standard). The samples were placed in a
Beckman Coulter Allegra x 12R Centrifuge (Brea, CA) for 15 minutes at 3700 rpm. After centrifugation,
the supernatant of each sample was diluted 1:2 and analyzed by LC -MS/ MS. Matrix stability and
recovery were assessed in triplicates and followed identical sample preparation.
Microsomal binding (fumic):
as §10, §11, §12, §13, §14, §15, §16, §17, §18, §19, §20, §21, §22, §23, §24, §25, §26, §27, §28
%𝑟𝑒𝑐𝑜𝑣𝑒𝑟𝑦 = (𝐴 + 𝐵)/𝐶 × 100 (Eq. S13)
as §29

[13] = Cytosolic binding (fucyt), human liver cytosol with AO inhibitor; details: 1 mg/mL; n=3, mean (CV%)
[14] = target: T1, aldehyde oxidase (AO) (Homo sapiens, UniProt Q06278); assay: In vitro AO inhibition (literature); details: Figure 5
T1 sequence (Q06278 1-1338): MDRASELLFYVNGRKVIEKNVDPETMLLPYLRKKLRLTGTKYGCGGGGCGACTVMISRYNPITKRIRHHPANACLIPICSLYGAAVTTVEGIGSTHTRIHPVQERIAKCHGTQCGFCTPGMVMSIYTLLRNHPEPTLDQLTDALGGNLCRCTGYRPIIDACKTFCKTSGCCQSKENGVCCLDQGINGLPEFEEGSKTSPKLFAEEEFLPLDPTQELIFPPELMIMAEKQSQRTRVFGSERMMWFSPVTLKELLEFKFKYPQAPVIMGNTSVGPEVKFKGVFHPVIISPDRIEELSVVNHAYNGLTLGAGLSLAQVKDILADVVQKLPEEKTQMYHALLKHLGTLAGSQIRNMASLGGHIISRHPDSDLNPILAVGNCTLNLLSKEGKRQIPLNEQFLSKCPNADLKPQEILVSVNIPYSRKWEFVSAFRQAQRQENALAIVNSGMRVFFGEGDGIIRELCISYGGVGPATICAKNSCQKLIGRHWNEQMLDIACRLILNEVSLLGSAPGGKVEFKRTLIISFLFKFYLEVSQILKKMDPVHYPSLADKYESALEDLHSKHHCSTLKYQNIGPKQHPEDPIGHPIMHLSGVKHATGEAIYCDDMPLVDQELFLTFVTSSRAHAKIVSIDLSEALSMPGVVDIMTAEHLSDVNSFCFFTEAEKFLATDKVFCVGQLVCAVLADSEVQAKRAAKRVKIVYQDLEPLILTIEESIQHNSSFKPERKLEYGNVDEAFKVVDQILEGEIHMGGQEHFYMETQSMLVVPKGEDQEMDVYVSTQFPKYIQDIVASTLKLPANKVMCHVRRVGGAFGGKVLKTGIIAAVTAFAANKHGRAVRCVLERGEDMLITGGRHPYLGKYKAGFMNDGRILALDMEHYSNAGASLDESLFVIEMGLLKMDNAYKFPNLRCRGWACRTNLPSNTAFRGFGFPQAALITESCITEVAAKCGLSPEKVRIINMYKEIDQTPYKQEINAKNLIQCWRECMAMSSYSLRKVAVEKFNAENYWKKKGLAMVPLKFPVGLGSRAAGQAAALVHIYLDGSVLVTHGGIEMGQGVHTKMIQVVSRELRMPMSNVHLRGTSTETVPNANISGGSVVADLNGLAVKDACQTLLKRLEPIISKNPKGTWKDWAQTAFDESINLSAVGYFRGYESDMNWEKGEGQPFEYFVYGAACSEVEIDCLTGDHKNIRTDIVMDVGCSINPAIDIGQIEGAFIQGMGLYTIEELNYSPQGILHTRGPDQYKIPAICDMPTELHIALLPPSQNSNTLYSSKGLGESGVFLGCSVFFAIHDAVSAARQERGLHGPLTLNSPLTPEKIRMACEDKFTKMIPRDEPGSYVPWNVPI
Text: (§1) Supplement 5. Exploratory analysis to evaluate potential AO-mediated DDI risks […]
(§2) Semi-mechanistic model for AO-mediated DDI risk predictions
(§3) Supp. Table 4. Summary of inhibitor parameters used in the semi -mechanistic static model to evaluate the risk of AO -mediated DDIs
(§4) Semi-mechanistic model for AO mediated DDI risk predictions: […]
(§5) using the semi-mechanistic static model with listed parameters in Suppl. Table 4. The most conservative approach is used for all compounds with maximum Cmax,u and minimum Ki,u data available. […]
(§6) [I] is the unbound concentration of inhibitors in the liver and was designated as the unbound maximum systemic concentration of inhibitors as a surrogate. 27 Due to the lack of AO kdeg values in the literature, the arithmetic means of all reported P450 kdeg (0.00026 min-1) was used.28, 29 […]
(§7) Table S4. Summary of inhibitor parameters used in the semi-mechanistic static model to evaluate the risk of […]
(§8) bSimcyp v.21 Compound Repository […]
(§9) dCorrected for the 0.05 mg/mL cytosolic protein from the measured fuinc at 1.5 mg/mL cytosolic protein34, 36

[15] = Inhibitor plasma exposure and plasma binding (literature); format: in vivo, human; details: Figure 5
Text: as §1, §2, §3, §4, §5, §6, §7, §8, §9

[16] = target: T1, aldehyde oxidase (AO); details: cited from earlier work; for Mode of inhibition: ref suppl. 30, 31, 32, 35, 59
[17] = test system: UGT1A1; set-up: method as in suppl. 32; details: ref suppl. 32; cited from earlier work
[18] = test system: UGT1A3; set-up: method as in suppl. 32; details: ref suppl. 32; cited from earlier work
[19] = in vivo; cited from earlier work
[20] = target: T1, aldehyde oxidase (AO); details: cited from earlier work
[21] = DDI study with rifampicin (capmatinib 400, idelalisib 150, lenvatinib 24 mg) or carbamazepine (ziprasidone 20 mg), observed, ref suppl. 15,18,21,25
[22] = with itraconazole (capmatinib 200 mg) or ketoconazole (idelalisib 400, lenvatinib 5, ziprasidone 40 mg), observed, ref suppl. 15,10,17,20,24
[23] = with rifampicin (capmatinib 400, idelalisib 150, lenvatinib 24 mg) or carbamazepine (ziprasidone 20 mg), observed, ref suppl. 15,18,21,25
[24] = observed (mass balance), capmatinib 600 mg section, ref suppl. 8

% Stability in plasma [1]: 78.8%
B/P ([2]; 10 ng/mL): 3.95
B/P ([2]; 5000 ng/mL): 1.37
Papp A→B at 120 min, 5 µM [3]: 32 ×10⁻⁶ cm/s
Papp B→A at 120 min, 5 µM [3]: 29.5 ×10⁻⁶ cm/s
efflux ratio at 120 min, 5 µM [3]: 0.921
fumic (PBPK input) [4]: 0.826
microsomal CLint at 1 µM [6]: 30.4 µL/min/mg
Predicted fumic for 0.5 mg/mL [11]: 0.707
Predicted fumic for 1 mg/mL [11]: 0.549
fucyt, Dog Liver Cytosol with 50 uM Hydralazine [12]: 0.718 (2.47)
fucyt, Human Liver Cytosol with 5 uM Raloxifene [13]: 0.777 (8.48)
fucyt, Human Liver Cytosol with 50 uM Hydralazine [13]: 0.831 (2.65)
SMILES: CNC(=O)c1ccc(-c2cnc3ncc(Cc4ccc5ncccc5c4)n3n2)cc1F [Capmatinib]
Cmax, control ([5]; DDI study with itraconazole (capmatinib 200 mg) or ketoconazole (idelalisib 400, lenvatinib 5, ziprasidone 40 mg), observed geomean (CV%), ref suppl. 15,10,17,20,24): 1260 ng/mL
AUCinf, control ([5]; DDI study with itraconazole (capmatinib 200 mg) or ketoconazole (idelalisib 400, lenvatinib 5, ziprasidone 40 mg), observed, ref suppl. 15,10,17,20,24): 5180 ng·h/mL
AUCinf, control (AUC0-12 for ziprasidone) [5, 21]: 11500 ng·h/mL
Cmax, control [5, 21]: 3070 ng/mL
AUCinf, interaction [5, 22]: 7360 ng·h/mL
Cmax, interaction [5, 22]: 1300 ng/mL
AUCinf, interaction (AUC0-12 for ziprasidone) [5, 23]: 3850 ng·h/mL
Cmax, interaction [5, 23]: 1350 ng/mL
HH CLint, non-AO [7]: 7.8[21] μL/min/10^6 hepatocytes
pKa1 ([8]; 47 (per cell)): 12.8[44]
pKa2 ([8]; 47 (per cell)): 4.55[44]
logP ([8]; octanol-water, 12 (per cell)): 3.04[44]
fa [9]: 0.67[48]
AUCinf ([9]; human, in vivo, po): 14400 (36.9) ng.h/mL
CLoral ([9]; human, in vivo, po): 51.7 (66.5) L/h
Cmax ([9]; human, in vivo, po): 3670 (46.6) ng/mL
CLRenal ([9]; observed, ref Table S2/S3 studies): Negligible
CLiv/oral [CV%] ([9]; oral, capmatinib weighted mean and CV, ref Table S2/S3 studies): 42.3 [60] (weighted mean and CV) L/h
fmAO ([10]; measured in excreta, ref suppl. 8-13): 0.40
fmAO ([10]; measured in excreta, ref suppl. 8-13, listed as capmatinib): 0.4
fmAO ([10]; observed (mass balance), min-max where uncertain, Table S10, ref suppl. 8-13): 40
fmCYP3A4 ([10]; observed (mass balance), min-max where uncertain, ref suppl. 8-12): 60
fmAO [10, 24]: 40
fmCYP3A4 [10, 24]: 60
fmAO ([10]; observed, mass balance): 40%
fmCYP3A4 ([10]; ref suppl. 8-12): 0.6

SMILES: C#Cc1cccc(Nc2ncnc3cc(OCCOC)c(OCCOC)cc23)c1 [Erlotinib]
Ki ([14]; KI,u): 500 nM
Ki ([14]; Ki,u): 130 nM
Cmax,u [15]: 0.42 µM
Mode of inhibition [16]: Time-dependent
IC50 [17]: 1340 nM
Ki [18]: 3020 nM
Cmax [19]: 6.06 µM

Ki ([14]; cytosol, KI,u): 920 nM
Ki ([14]; cytosol, Ki,u): 350 nM
Cmax,u [15]: 0.57 µM
SMILES: C#Cc1cccc(Nc2ncnc3cc4c(cc23)OCCOCCOCCO4)c1 [Icotinib]
Mode of inhibition [16]: Time-dependent
Maximal inactivation rate (kinact) ([16]; ref suppl. 32): 0.55 min⁻¹
IC50 [17]: 12200 nM
Ki [18]: 25600 nM

SMILES: O=C(Nc1ccc(OC(F)(F)F)cc1)c1sccc1NCc1ccnc2ccccc12 [OSI-930]
fmAO of victim drug in AO DDI reports [20]: 0.46

SMILES: NC(=O)c1nc(F)c[nH]c1=O [favipiravir]
fmAO of victim drug in AO DDI reports [20]: 0.9
